According to patent US10987359B2, “Oxadiazepinone derivatives and methods of treating hepatitis B infections” (priority 2016, dated 2021):

System: HBV
Experiment: HBV replication inhibition assay (BDNA assay) in HepG2.2.15 cells
Assay type: cell-based
Conditions: Hepatitis B virus, HepG2.2.15, HBV replication assay (BDNA assay), HepG2.2.15 cells; read-out: DNA EC50
Summary of the method: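 Supernatant encapsidated HBV DNA was measured by bDNA after DNase digestion and proteinase K release. Stably HBV-integrated HepG2.2.15 cells had two 3-day compound exposures (0.5% DMSO). Signals were background-subtracted and normalized to DMSO wells, and EC50 was obtained by four-parameter fit.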

`CC(=O)OCC1Cn2nc3c(c2C(=O)N(C)O1)CN(C(=O)Nc1ccc(F)c(Cl)c1)CC3` (stereo not drawn) [Compound 052, (10-((3-chloro-4-fluorophenyl)carbamoyl)-2-methyl-1-oxo-1,2,4,5,8,9,10,11-octahydropyrido[4′,3′:3,4]pyrazolo[5,1-d][1,2,5]oxadiazepin-4-yl)methyl acetate] and `CN1OC(COC(N)=O)Cn2nc3c(c2C1=O)CN(C(=O)Nc1ccc(F)c(Cl)c1)CC3` (stereo not drawn) [Compound 057, (10-((3-chloro-4-fluorophenyl)carbamoyl)-2-methyl-1-oxo-1,2,4,5,8,9,10,11-octahydropyrido[4′,3′:3,4]pyrazolo[5,1-d][1,2,5]oxadiazepin-4-yl)methyl carbamate] fall in the same range of EC50: 1 to 100 nM for the first, 1 to 100 nM for the second.

`CC(C)OC(=O)OCC1Cn2nc3c(c2C(=O)N(C)O1)CN(C(=O)Nc1ccc(F)c(Cl)c1)CC3` (stereo not drawn) [Compound 053, (10-((3-chloro-4-fluorophenyl)carbamoyl)-2-methyl-1-oxo-1,2,4,5,8,9,10,11-octahydropyrido[4′,3′:3,4]pyrazolo[5,1-d][1,2,5]oxadiazepin-4-yl)methyl isopropyl carbonate] and `CCOC(=O)OCC1Cn2nc3c(c2C(=O)N(C)O1)CN(C(=O)Nc1ccc(F)c(Cl)c1)CC3` (stereo not drawn) [Compound 056, (10-((3-chloro-4-fluorophenyl)carbamoyl)-2-methyl-1-oxo-1,2,4,5,8,9,10,11-octahydropyrido[4′,3′:3,4]pyrazolo[5,1-d][1,2,5]oxadiazepin-4-yl)methyl ethyl carbonate] fall in the same range of EC50: 1 to 100 nM for the first, 1 to 100 nM for the second.

`CN1OC(COC(=O)OC(C)(C)C)Cn2nc3c(c2C1=O)CN(C(=O)Nc1ccc(F)c(Cl)c1)CC3` (stereo not drawn) [Compound 054, tert-butyl ((10-((3-chloro-4-fluorophenyl)carbamoyl)-2-methyl-1-oxo-1,2,4,5,8,9,10,11-octahydropyrido[4′,3′:3,4]pyrazolo[5,1-d][1,2,5]oxadiazepin-4-yl)methyl) carbonate] and `CN1OC(COC(=O)C(C)(C)C)Cn2nc3c(c2C1=O)CN(C(=O)Nc1ccc(F)c(Cl)c1)CC3` (stereo not drawn) [Compound 055, (10-((3-chloro-4-fluorophenyl)carbamoyl)-2-methyl-1-oxo-1,2,4,5,8,9,10,11-octahydropyrido[4′,3′:3,4]pyrazolo[5,1-d][1,2,5]oxadiazepin-4-yl)methyl pivalate] fall in the same range of EC50: 1 to 100 nM for the first, 1 to 100 nM for the second.

`CN(C)CC1Cn2nc3c(c2C(=O)N(C)O1)CN(C(=O)Nc1ccc(F)c(Cl)c1)CC3` (stereo not drawn) [Compound 058, N-(3-chloro-4-fluoro-phenyl)-4-[(dimethylamino)methyl]-2-methyl-1-oxo-5,8,9,11-tetrahydro-4H-pyrido[2,3]pyrazolo[2,4-d][1,2,5]oxadiazepine-10-carboxamide] and `COCC1Cn2nc3c(c2C(=O)N(C)O1)CN(C(=O)Nc1ccc(F)c(Cl)c1)CC3` (stereo not drawn) [Compound 065, N-(3-chloro-4-fluoro-phenyl)-4-(methoxymethyl)-2-methyl-1-oxo-5,8,9,11-tetrahydro-4H-pyrido[2,3]pyrazolo[2,4-d][1,2,5]oxadiazepine-10-carboxamide] fall in the same range of EC50: 1 to 100 nM for the first, 1 to 100 nM for the second.

`CN(C)C(=O)OCC1Cn2nc3c(c2C(=O)N(C)O1)CN(C(=O)Nc1ccc(F)c(Cl)c1)CC3` (stereo not drawn) [Compound 059, [10-[(3-chloro-4-fluoro-phenyl)carbamoyl]-2-methyl-1-oxo-5,8,9,11-tetrahydro-4H-pyrido[2,3]pyrazolo[2,4-d][1,2,5]oxadiazepin-4-yl]methyl N,N-dimethylcarbamate] and `CN(C)C(=O)C1Cn2nc3c(c2C(=O)N(C)O1)CN(C(=O)Nc1ccc(F)c(Cl)c1)CC3` (stereo not drawn) [Compound 074, N10-(3-chloro-4-fluoro-phenyl)-N4,N4,2-trimethyl-1-oxo-5,8,9,11-tetrahydro-4H-pyrido[2,3]pyrazolo[2,4-d][1,2,5]oxadiazepine-4,10-dicarboxamide] fall in the same range of EC50: 1 to 100 nM for the first, 1 to 100 nM for the second.

`CC1CON(C)C(=O)c2c3c(nn21)CCN(C(=O)Nc1ccc(F)c(Cl)c1)C3` (stereo not drawn) [Compound 061, N-(3-chloro-4-fluoro-phenyl)-2,5-dimethyl-1-oxo-5,8,9,11-tetrahydro-4H-pyrido[2,3]pyrazolo[2,4-d][1,2,5]oxadiazepine-10-carboxamide] and `CC1Cn2nc3c(c2C(=O)N(C)O1)CN(C(=O)Nc1ccc(F)c(Cl)c1)CC3` (stereo not drawn) [Compound 062, N-(3-chloro-4-fluorophenyl)-2,4-dimethyl-1-oxo-1,4,5,8,9,11-hexahydropyrido[4′,3′:3,4]pyrazolo[5,1-d][1,2,5]oxadiazepine-10(2H)-carboxamide] fall in the same range of EC50: 1 to 100 nM for the first, 1 to 100 nM for the second.

`CC1Cn2nc3c(c2C(=O)N(C)O1)CN(C(=O)Nc1cccc(Cl)c1)CC3` (stereo not drawn) [Compound 063, N-(3-chlorophenyl)-2,4-dimethyl-1-oxo-1,4,5,8,9,11-hexahydropyrido[4′,3′:3,4]pyrazole [5,1-d][1,2,5]oxadiazepine-10(2H)-carboxamide] and `CN1OC(C(N)=O)Cn2nc3c(c2C1=O)CN(C(=O)Nc1ccc(F)c(Cl)c1)CC3` (stereo not drawn) [Compound 072, N10-(3-chloro-4-fluoro-phenyl)-2-methyl-1-oxo-5,8,9,11-tetrahydro-4H-pyrido[2,3]pyrazolo[2,4-d][1,2,5]oxadiazepine-4,10-dicarboxamide] fall in the same range of EC50: 1 to 100 nM for the first, 1 to 100 nM for the second.

`CN1OC(C)(C)Cn2nc3c(c2C1=O)CN(C(=O)Nc1ccc(F)c(Cl)c1)CC3` [Compound 064, N-(3-chloro-4-fluoro-phenyl)-2,4,4-trimethyl-1-oxo-5,8,9,11-tetrahydro pyrido[2,3]pyrazolo[2,4-d][1,2,5]oxadiazepine-10-carboxamide] and `CN1OCCn2nc3c(c2C1=O)CN(C(=O)Nc1ccc(F)c(Cl)c1)CC3` [Compound 066, N-(3-chloro-4-fluoro-phenyl)-2-methyl-1-oxo-5,8,9,11-tetrahydro-4H-pyrido[2,3]pyrazolo[2,4-c][1,2,5]oxadiazepine-10-carboxamide] fall in the same range of EC50: 1 to 100 nM for the first, 1 to 100 nM for the second.

`C=CCN1OCCn2nc3c(c2C1=O)CN(C(=O)Nc1ccc(F)c(Cl)c1)CC3` [Compound 067, 2-allyl-N-(3-chloro-4-fluoro-phenyl)-1-oxo-5,8,9,11-tetrahydro-4H-pyrido[2,3]pyrazolo[2,4-c][1,2,5]oxadiazepine-10-carboxamide] and `CCCN1OCCn2nc3c(c2C1=O)CN(C(=O)Nc1ccc(F)c(Cl)c1)CC3` [Compound 068, N-(3-chloro-4-fluoro-phenyl)-1-oxo-2-propyl-5,8,9,11-tetrahydro-4H-pyrido[2,3]pyrazolo[2,4-c][1,2,5]oxadiazepine-10-carboxamide] fall in the same range of EC50: 1 to 100 nM for the first, 1 to 100 nM for the second.

Compared with `CC1Cc2nn3c(c2CN1C(=O)Nc1cccc(Cl)c1)C(=O)N(C)OC(CO)C3` (stereo not drawn) [Compound 070, N-(3-chlorophenyl)-4-(hydroxymethyl)-2,9-dimethyl-1-oxo-5,8,9,11-tetrahydro-4H-pyrido[2,3]pyrazolo[2,4-d][1,2,5]oxadiazepine-10-carboxamide], `COC(=O)C1Cn2nc3c(c2C(=O)N(C)O1)CN(C(=O)Nc1ccc(F)c(Cl)c1)CC3` (stereo not drawn) [Compound 071, methyl 10-[(3-chloro-4-fluoro-phenyl)carbamoyl]-2-methyl-1-oxo-5,8,9,11-tetrahydro-4H-pyrido[2,3]pyrazolo[2,4-d][1,2,5]oxadiazepine-4-carboxylate] is higher in EC50: 1 to 100 nM for the first, greater than 1000 nM for the second.

`CNC(=O)C1Cn2nc3c(c2C(=O)N(C)O1)CN(C(=O)Nc1ccc(F)c(Cl)c1)CC3` (stereo not drawn) [Compound 073, N10-(3-chloro-4-fluoro-phenyl)-N4,2-dimethyl-1-oxo-5,8,9,11-tetrahydro-4H-pyrido[2,3]pyrazolo[2,4-d][1,2,5]oxadiazepine-4,10-dicarboxamide] gave an EC50 of 1 to 100 nM.
